{"source": "patent US10799456B2", "about": "“Multiple drug lipid nanoparticle composition and related methods for extended drug levels in blood and lymph tissue” (priority 2015, dated 2020)", "key": {"HIV-2(287) replication": {"system": "HIV-2(287) replication", "assay": "Antiviral activity in HIV-infected CEM-174 cells", "type": "cell-based", "settings": "Human immunodeficiency virus 2, CEM174, LPV:RTV:PMPA fixed 1:1:0.5 (m/m/m), LNP form; read-out: EC50 (nM), Drug-lipid nanoparticles with 3 drug combination", "procedure": "The antiviral activity of the three-drug combination in soluble or LNP form was evaluated in HIV-infected CEM-174 cells as described previously. […] J Acquir Immune Defic Syndr 2003; 34(4):387-397, incorporated herein by reference in its entirety. […] The dose of drugs added to cells represents the sum of bound and unbound drugs in these anti-HIV LNP formulations."}, "[1]": {"assay": "Drug incorporation/encapsulation (association) efficiency of multi-drug LNPs by dialysis", "type": "physicochemical", "settings": "for Degree of incorporation (% total): anti-HIV LNPs LPV/RTV/PMPA", "procedure": "The anti-HIV LNP formulations contain both unbound drug and drugs bound to lipid nanoparticles. […] Drugs were quantified by LC-MS/MS using acetonitrile precipitation. Encapsulation efficiency (EE) was calculated as follows: […]"}, "in vivo [2]": {"assay": "in vivo", "settings": "for concentration at 24 h: sc, Mean drug concentration, Plasma", "source_text": "Four young adult male macaques (Macaca nemestrina, 2.9-4.0 kg) were housed and cared for by the Washington National Primate Research Center (WaNPRC) under an approved Institutional Animal Care and Use Committee protocol.\nThe vehicle for the first suspension was bicarbonate-buffered saline with 3% ethanol and 0.2% bovine serum albumin. The vehicle for the second suspension was bicarbonate-buffered saline with 8% DMSO and 0.1% Tween 20.\n(§1) Four macaques were divided into two treatment groups (two animals per group). […] Data were normalized to the anti-HIV LNP dose for comparative analysis.\n(§2) Plasma was removed, PBMCs were isolated by the density gradient method, and cells were aliquoted into pellets of approximately 2 million PBMCs each. An inguinal lymph node was surgically excised 24 h after drug administration (n=2 per treatment), LNMCs were isolated by passage through a 100-lm nylon cell strainer (Corning, Tewksbury, Mass.), and cells were aliquoted into pellets of approximately 1-2 million LNMCs each. All samples were stored at −80° C. prior to drug analysis.\n(§3) Plasma concentrations of all three drugs were analyzed simultaneously by liquid chromatography-tandem mass spectrometry using a recently published method. […] Antimicrob Agents Chemother 2014; 58(5):2675-2680, incorporated herein by reference in its entirety. PBMC and LNMC pellets were lysed using 200 μl water/methanol (1:1 v/v), sonicated for 10 min, and then extracted and analyzed using the same method as cited above. Intracellular concentrations were converted to ng/ml with the assumption that each cell has a volume of 4×10^−9 ml. Alberts B, Johnson A, Lewis J, et al. Molecular Biology of the Cell, 4 ed. Garland Science, New York, 2002, incorporated herein by reference in its entirety.\nData were analyzed by paired two-tailed Student's t-test with p<0.05 considered statistically significant."}, "in vivo [3]": {"assay": "in vivo", "settings": "male, Macaca nemestrina, in vivo, sc, Mean drug concentration, Lymph node", "procedure": "as §1, §2, §3"}, "[4]": {"assay": "Storage stability at 4° C. (fraction of drug bound, dialysis)", "type": "physicochemical", "procedure": "To test the long-term stability, the multi-drug nanoparticles were stored under refrigeration at 4° C. and were tested for stability after a prolonged period. The lipid-drug combination particles are stable as determined by both particle size and degree of drug association (Table 12). […] Even the hydrophilic compound, which readily diffuses out of most lipid particles in a number of hours, loses a remarkably low fraction of the associated drug after 8, 12, and 17 months in storage. This exceptional stability provides a substantial advantage for translation to clinical application."}, "[5]": {"assay": "pH dependent drug release from LPV/RTV/TFV lipid nanoparticles", "type": "physicochemical", "settings": "2 hrs", "source_text": "As described above, we established the pH-dependent association of various drugs to lipids at neutral pH and the consequent release of the drugs when pH is lowered. Also described above, this stable integration and pH-dependent release of drugs from the multiple drug lipid nanoparticles was consistent for both lipophilic and water soluble compounds. To confirm the pH dependent release of the individual drugs from the multiple drug combination lipid nanoparticles, LPV/RTV/PMPA(TFV) lipid nanoparticles, assembled as described above, were subjected to different pH environments, and the free drug component of the supernatant was assayed to determine the amount of release. […] When a lipid nanoparticle is localized in tissues and taken up by HIV-infected cells, the incorporated antiretroviral drugs are then released inside the cell organelles (such as endosome and lysosomes) when the pH is lowered."}, "[6]": {"assay": "% Drug association to particles by assembly method", "type": "physicochemical", "source_text": "Select one or two drugs hydrophilic and water soluble (Class 2) drugs listed in Table 19 (for example, tenofovir and/or emtricitabine and/or lamivudine). • 3. Select the excipient combination (for example, 9 parts DSPC and 1 part PEG-DSPE). • 4. Prepare a single-phase miscible solvent that enables full solubilization of the chosen water-insoluble Class 1 drugs and water soluble Class 2 drugs plus the excipients from step 3. Examples include CHCl3:Methanol:Water (65:35:4); CHCl3:Ethanol:Water (65:35:4); CHCl3:Propanol:Water (65:35:4); and CHCl3:Hexanol:Water (65:35:4). • 5. The components in Steps 1, 2 and 3 are solubilized with the miscible solvent in step 4. • 6. The drugs (steps 1 and 2) as well as excipients (step 3) and the miscible solvent (step 4) are dried under reduced pressure with assistance of a combination of heat, reduced pressure and/or aerosolization to provide for uniformity and efficiency of drying. • 7. The dehydrated composition is heated above gel-to-liquid phase transition temperature of the excipient mixture (e.g., 50° C.). • 8. A buffered saline solution is prepared and the temperature is equilibrated to the same temperature as dehydrated composition. • 9. The buffered saline solution and dehydrated composition are gradually combined and maintained at the defined (e.g., 50° C.) for 3 hr. • 10. The resulting hydrated multi-drug lipid nanoparticles are size-reduced by sheering or forcing through small orifice or pressurized filter apparatus while maintaining at the defined temperature (in liquid phase of lipidic excipients)."}, "[7]": {"assay": "Sucrose gradient test of drug association", "type": "physicochemical", "settings": "5-20% sucrose gradient, 200,000 g, 4 hr; LPV/RTV/TFV LNPs, single miscible solvent method", "procedure": "The sucrose gradient test to determine this characteristic is described in Example 5. Briefly, the sucrose gradient test comprises subjecting the multi-drug lipid nanoparticle to a continuous 5%-20% sucrose gradient and applying a centrifugal force of 200,000 g for 4 hours. The unassociated small molecules separate and float to the less dense fractions, whereas the associated small molecule agents sediment with the stable lipid nanoparticles in the denser gradients. The relative amounts of the unassociated and associated small molecule reagents can be quantified and, thus, compared.\nThe sucrose gradient test centrifugation test separates any unbound drugs from multi-drug lipid nanoparticles by sedimentation of lipid-drug particles through a sucrose gradient with increasing density to strip off unbound drugs. Under these conditions, all the free drugs in solution remained at (or floated to) the top of gradient where the sucrose density is low. Specifically, using a continuous gradient of 5-20% (with 65% cushion) sucrose, the lipid-drug particle mixture was subjected to centrifugal force at 200,000 g for 4 hr. Through this process, we were able to separate bound and unbound drug fractions. […] It is noted that the observed percentage of multi drug lipid nanoparticle association for the other two drugs (LPV and RTV) are consistent with data in Table 11."}, "[8]": {"settings": "cited from earlier work"}, "HIV-1": {"system": "HIV-1", "assay": "microbe, parasite or virus in culture", "settings": "Human immunodeficiency virus 1, read-out: EC50 in LNP form"}, "[9]": {"settings": "male, Macaca nemestrina, in vivo"}}, "data": [{"compound": "Cc1cccc(C)c1OCC(=O)N[C@@H](Cc1ccccc1)[C@@H](O)C[C@H](Cc1ccccc1)NC(=O)[C@H](C(C)C)N1CCCNC1=O", "note": "[Lopinavir (LPV), Lopinavir]", "values": [{"measurement": "EC50", "setting": "HIV-2(287) replication", "result": "3 ± 0.8", "unit": "nM"}, {"measurement": "% particle-bound", "setting": "[1]; Combination 1, lipid:LPV:RTV:TFV 115:10:5:15, large scale", "result": "(86.4 ± 0.9) %"}, {"measurement": "% particle-bound", "setting": "[1]; Combination 3, lipid:LPV:EFV:TFV 200:26.6:20:40, large scale", "result": "(76.6) %"}, {"measurement": "Degree of incorporation (% total)", "setting": "[1]; clinical scale (15-40 ml)", "result": "93.6 ± 5.5", "unit": "%"}, {"measurement": "Degree of incorporation (% total)", "setting": "[1]; laboratory scale (0.1-0.4 ml)", "result": "74.2 ± 7.3", "unit": "%"}, {"measurement": "AUC 0-8 (%) of total, LNP", "setting": "in vivo [2]; [9]", "result": 9.9, "unit": "%"}, {"measurement": "AUC 8-168 (%) of total, LNP", "setting": "in vivo [2]; [9]", "result": 90.1, "unit": "%"}, {"measurement": "AUC fraction (% of total) Anti-HIV LNP 24-168 h", "setting": "in vivo [2]; [9]", "result": "62.8 ± 9.9", "unit": "%"}, {"measurement": "concentration at 24 h", "setting": "in vivo [2]; male, Macaca nemestrina, in vivo, Anti-HIV LNP treatment", "result": "596 ± 123", "unit": "ng/mL"}, {"measurement": "concentration at 24 h", "setting": "in vivo [2]; male, Macaca nemestrina, in vivo, Free drug treatment", "result": "24.5 ± 26.3", "unit": "ng/mL"}, {"measurement": "AUC Free drug 0-168 h", "setting": "in vivo [2]; plasma, sc 25/14.3/17.1 mg/kg LPV/RTV/PMPA, four animals", "result": "3830 ± 4040", "unit": "ng·h/mL"}, {"measurement": "concentration at 24 h", "setting": "in vivo [3]; Anti-HIV LNP treatment", "result": "1212 ± 9.8", "unit": "ng/mL"}, {"measurement": "concentration at 24 h", "setting": "in vivo [3]; Free drug treatment", "result": 0, "unit": "ng/mL"}, {"measurement": "Fraction of drug bound in multi-drug nanoparticles (% total)", "setting": "[4]; 0 months", "result": "82.70 ± 7.00", "unit": "%"}, {"measurement": "Fraction of drug bound in multi-drug nanoparticles (% total)", "setting": "[4]; 8 months", "result": "95.33 ± 7.53", "unit": "%"}, {"measurement": "Fraction of drug bound in multi-drug nanoparticles (% total)", "setting": "[4]; 12 months", "result": "94.62 ± 11.86", "unit": "%"}, {"measurement": "Fraction of drug bound in multi-drug nanoparticles (% total)", "setting": "[4]; 17 months, one batch", "result": 92.89, "unit": "%"}, {"measurement": "% Drug released from anti-HIV nanoparticles", "setting": "[5]; pH 4.0, 37° C.", "result": "93.7 ± 1.2", "unit": "%"}, {"measurement": "% Drug released from anti-HIV nanoparticles", "setting": "[5]; pH 5.5, 37° C.", "result": "28.9 ± 1.4", "unit": "%"}, {"measurement": "% Drug released from anti-HIV nanoparticles", "setting": "[5]; pH 6.5, 37° C.", "result": "3.9 ± 2.7", "unit": "%"}, {"measurement": "% Drug released from anti-HIV nanoparticles", "setting": "[5]; pH 7.4, 37° C.", "result": "1 ± 0.6", "unit": "%"}, {"measurement": "% Drug Association to Particles, LNPs from mixture of dual solvent method", "setting": "[6]", "result": "80-100%"}, {"measurement": "% Drug Association to Particles, LNPs from single, miscible solvent method", "setting": "[6]", "result": "90-100%"}, {"measurement": "% association to lipid-drug particles (bound fraction)", "setting": "[7]", "result": 81.8, "unit": "%"}, {"measurement": "Water solubility @ 25° C.", "setting": "[8]", "result": 7.7, "unit": "ng/mL"}, {"measurement": "EC50", "setting": "HIV-1", "result": "30 ± 0.8", "unit": "nM"}]}]}
